Measurements as given in PMC3742170, “Enzymatic Properties of Populus α- and β-NAD-ME Recombinant Proteins” (International Journal of Molecular Sciences, 2013).

T1: PtNAD-ME3 (Populus trichocarpa, UniProt B9GPX3)
T1 construct: gene POPTR_002G156000; mature form without mitochondrial signal peptide; pGEX-6p-3, N-terminal GST cut with PreScission; E. coli BL21; about 61 kDa on SDS-PAGE
T1 sequence (B9GPX3 23-607): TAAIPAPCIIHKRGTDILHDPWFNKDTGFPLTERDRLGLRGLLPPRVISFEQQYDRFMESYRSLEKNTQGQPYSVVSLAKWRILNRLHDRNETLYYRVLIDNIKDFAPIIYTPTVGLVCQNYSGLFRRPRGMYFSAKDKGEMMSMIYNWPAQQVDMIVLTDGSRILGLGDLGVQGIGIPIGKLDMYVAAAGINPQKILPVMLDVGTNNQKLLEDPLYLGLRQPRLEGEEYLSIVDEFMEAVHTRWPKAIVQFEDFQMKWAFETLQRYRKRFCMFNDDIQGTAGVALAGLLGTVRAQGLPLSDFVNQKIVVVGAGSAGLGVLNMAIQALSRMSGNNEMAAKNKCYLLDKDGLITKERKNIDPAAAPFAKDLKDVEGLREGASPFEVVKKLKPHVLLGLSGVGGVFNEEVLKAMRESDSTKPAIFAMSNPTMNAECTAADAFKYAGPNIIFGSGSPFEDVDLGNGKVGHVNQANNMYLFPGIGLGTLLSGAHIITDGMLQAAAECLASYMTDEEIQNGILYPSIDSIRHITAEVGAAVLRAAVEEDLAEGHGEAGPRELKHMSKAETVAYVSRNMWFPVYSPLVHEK

T2: PtNAD-ME2 (Populus trichocarpa, UniProt B9MVC4)
T2 construct: gene POPTR_014G043700; mature form without mitochondrial signal peptide; pGEX-6p-3, N-terminal GST cut with PreScission; E. coli BL21
T2 sequence (B9MVC4 36-627): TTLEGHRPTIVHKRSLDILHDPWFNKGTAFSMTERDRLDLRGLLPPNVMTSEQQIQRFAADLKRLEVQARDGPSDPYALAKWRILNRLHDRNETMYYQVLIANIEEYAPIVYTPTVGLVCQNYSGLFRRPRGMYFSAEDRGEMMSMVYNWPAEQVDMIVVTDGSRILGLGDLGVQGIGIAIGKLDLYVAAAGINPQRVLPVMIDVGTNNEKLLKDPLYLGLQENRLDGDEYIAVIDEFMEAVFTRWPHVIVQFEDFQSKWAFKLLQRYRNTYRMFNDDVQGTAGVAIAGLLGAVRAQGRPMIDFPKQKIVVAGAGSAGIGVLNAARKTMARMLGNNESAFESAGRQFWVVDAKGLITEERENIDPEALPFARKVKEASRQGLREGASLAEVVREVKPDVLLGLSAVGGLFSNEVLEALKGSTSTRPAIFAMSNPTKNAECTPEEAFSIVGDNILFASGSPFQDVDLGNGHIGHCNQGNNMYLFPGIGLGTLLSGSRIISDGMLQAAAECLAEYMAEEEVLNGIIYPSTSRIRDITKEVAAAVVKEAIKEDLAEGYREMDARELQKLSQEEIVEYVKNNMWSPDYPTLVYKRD

T3: PtNAD-ME1 (Populus trichocarpa, UniProt A0ACC0TE46)
T3 construct: gene POPTR_002G135300v4; mature form without mitochondrial signal peptide; pGEX-6p-3, N-terminal GST cut with PreScission; E. coli BL21; about 67 kDa on SDS-PAGE; EC 1.1.1.39
T3 sequence (A0ACC0TE46 34-627): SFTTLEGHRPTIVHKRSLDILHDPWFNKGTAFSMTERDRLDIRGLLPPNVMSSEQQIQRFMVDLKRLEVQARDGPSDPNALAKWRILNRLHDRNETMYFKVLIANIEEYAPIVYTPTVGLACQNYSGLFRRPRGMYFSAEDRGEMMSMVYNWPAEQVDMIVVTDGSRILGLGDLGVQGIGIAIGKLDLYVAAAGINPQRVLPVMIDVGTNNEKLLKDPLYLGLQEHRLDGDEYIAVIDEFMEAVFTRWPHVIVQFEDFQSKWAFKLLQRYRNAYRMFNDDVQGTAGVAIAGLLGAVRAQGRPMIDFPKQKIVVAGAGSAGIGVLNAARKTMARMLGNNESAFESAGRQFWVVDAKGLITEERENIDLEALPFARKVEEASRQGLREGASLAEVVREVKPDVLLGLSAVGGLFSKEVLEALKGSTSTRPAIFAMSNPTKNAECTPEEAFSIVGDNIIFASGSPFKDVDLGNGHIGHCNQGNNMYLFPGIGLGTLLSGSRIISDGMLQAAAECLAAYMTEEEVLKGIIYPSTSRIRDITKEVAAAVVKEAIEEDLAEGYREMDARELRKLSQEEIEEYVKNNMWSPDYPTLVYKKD

T4: PtNAD-ME4 (Populus trichocarpa, UniProt A0A2K1XS69)
T4 construct: gene POPTR_014G079900; mature form without mitochondrial signal peptide; pGEX-6p-3, N-terminal GST cut with PreScission; E. coli BL21
T4 sequence (A0A2K1XS69 22-607): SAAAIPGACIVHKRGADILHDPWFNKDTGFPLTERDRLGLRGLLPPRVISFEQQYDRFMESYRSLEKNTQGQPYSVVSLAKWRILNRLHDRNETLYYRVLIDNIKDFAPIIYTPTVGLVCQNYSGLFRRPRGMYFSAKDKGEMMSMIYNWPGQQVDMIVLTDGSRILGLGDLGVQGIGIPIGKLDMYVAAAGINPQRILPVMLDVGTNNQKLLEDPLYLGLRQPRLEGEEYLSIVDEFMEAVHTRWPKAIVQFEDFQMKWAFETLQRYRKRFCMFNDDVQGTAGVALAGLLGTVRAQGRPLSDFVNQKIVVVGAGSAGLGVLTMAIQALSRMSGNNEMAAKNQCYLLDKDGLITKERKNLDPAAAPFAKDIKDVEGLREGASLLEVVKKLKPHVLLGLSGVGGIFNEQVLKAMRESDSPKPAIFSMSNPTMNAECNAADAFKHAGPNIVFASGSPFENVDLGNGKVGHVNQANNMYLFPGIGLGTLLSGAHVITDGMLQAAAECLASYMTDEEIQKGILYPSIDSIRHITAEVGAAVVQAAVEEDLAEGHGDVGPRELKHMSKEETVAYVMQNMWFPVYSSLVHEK


Key:
PtNAD-ME3 = molecular target: T1, PtNAD-ME3; test: inhibition of malate decarboxylation, NADH at […] nm; type: biochemical; settings: inhibitor; nonsaturating malate, saturating NAD, optimum pH 7.4
PtNAD-ME2 = molecular target: T2, PtNAD-ME2; test: inhibition of malate decarboxylation, NADH at […] nm; type: biochemical; settings: inhibitor; nonsaturating malate, saturating NAD, optimum pH 7.2
PtNAD-ME1 = molecular target: T3, PtNAD-ME1; test: inhibition of malate decarboxylation, NADH at […] nm; type: biochemical; settings: inhibitor; nonsaturating malate, saturating NAD, optimum pH 7.2
PtNAD-ME4 = molecular target: T4, PtNAD-ME4; test: inhibition of malate decarboxylation, NADH at […] nm; type: biochemical; settings: inhibitor; nonsaturating malate, saturating NAD, optimum pH 7.4
purified protein [1] = substrate: O=C(O)C[C@H](O)C(=O)O; test: purified protein; type: biochemical, Populus trichocarpa; settings: saturating NAD, 10 mM MnCl2, 150 mM Mes/NaOH, optimum pH 7.4
purified protein [2] = substrate: NC(=O)c1ccc[n+]([C@@H]2O[C@H](COP(=O)(O)OP(=O)(O)OC[C@H]3O[C@@H](n4cnc5c(N)ncnc54)[C@H](O)[C@@H]3O)[C@@H](O)[C@H]2O)c1; test: purified protein; type: biochemical, Populus trichocarpa; settings: saturating malate, 10 mM MnCl2, 150 mM Mes/NaOH, optimum pH 7.4

Molecule	% activity (PtNAD-ME3)	% activity (PtNAD-ME2)	% activity (PtNAD-ME1)	% activity (PtNAD-ME4)	Km (purified protein [1]) [µM]	Km (purified protein [2]) [µM]	kcat (purified protein [2]) [s⁻¹]	kcat/Km (purified protein [2]) [M⁻¹ s⁻¹]
O=C(O)CC(O)(CC(=O)O)C(=O)O [citrate]	OAA and citrate inhibited the activities of all	OAA and citrate inhibited the activities of all	OAA and citrate inhibited the activities of all	OAA and citrate inhibited the activities of all				
O=C(O)CC(=O)C(=O)O [oxalacetate]	OAA and citrate inhibited the activities of all	OAA and citrate inhibited the activities of all	OAA and citrate inhibited the activities of all	OAA and citrate inhibited the activities of all				
PtNAD-ME3 (Populus trichocarpa) (protein, mature form without mitochondrial signal peptide; pGEX-6p-3, N-terminal GST cut with PreScission; E. coli BL21; about 61 kDa on SDS-PAGE) TAAIPAPCIIHKRGTDILHDPWFNKDTGFPLTERDRLGLRGLLPPRVISFEQQYDRFMESYRSLEKNTQGQPYSVVSLAKWRILNRLHDRNETLYYRVLIDNIKDFAPIIYTPTVGLVCQNYSGLFRRPRGMYFSAKDKGEMMSMIYNWPAQQVDMIVLTDGSRILGLGDLGVQGIGIPIGKLDMYVAAAGINPQKILPVMLDVGTNNQKLLEDPLYLGLRQPRLEGEEYLSIVDEFMEAVHTRWPKAIVQFEDFQMKWAFETLQRYRKRFCMFNDDIQGTAGVALAGLLGTVRAQGLPLSDFVNQKIVVVGAGSAGLGVLNMAIQALSRMSGNNEMAAKNKCYLLDKDGLITKERKNIDPAAAPFAKDLKDVEGLREGASPFEVVKKLKPHVLLGLSGVGGVFNEEVLKAMRESDSTKPAIFAMSNPTMNAECTAADAFKYAGPNIIFGSGSPFEDVDLGNGKVGHVNQANNMYLFPGIGLGTLLSGAHIITDGMLQAAAECLASYMTDEEIQNGILYPSIDSIRHITAEVGAAVLRAAVEEDLAEGHGEAGPRELKHMSKAETVAYVSRNMWFPVYSPLVHEK					1300	450	1.3	2900
